Experimental data taken from patent publication US20130143869A1, “USE OF A CATIONIC AMPHIPHILIC DRUG FOR THE PREPARATION OF A FORMULATION FOR THE REDUCTION OF SUBCUTANEOUS ADIPOSE TISSUE” (Merz Pharma GmbH & CO. KGaA, priority 2010, published 2013).
pIC50: −log10 of the molar value. Counter-ions that a name gives are not always drawn.

How the values were obtained:
Format in all cases: cell-based
human adipocyte cells [1] = experiment: Membrane integrity: LDH release from human adipocytes (LDH assay); conditions: for Rel. max. LDH release [%] 48 hrs: Example 1, 48 hrs, relative to Triton-x 100 maximal LDH release; for pIC50: read-out: IC50 48 hrs LDH
Protocol: (§1) HWP were obtained in passage two and differentiated in vitro to mature adipocytes. Briefly, cells were initially cultured in preadipocyte growth medium at 37° C. and 5% CO2 to 70-80% confluency. Then, cells were seeded at 40,000 cells/ml into 96-well flat bottom tissue culture plates and incubated overnight to allow attachment. Differentiation was initiated by changing the medium to preadipopcyte differentiation medium for an additional 72 hrs. After differentiation was induced, the medium was replaced by adipocyte nutrition medium that was refreshed every 2-3 days over a period of 14 days until termination of differentiation. Differentiation status was checked via nile red staining of control cells.
(§2) For the cytotoxicity assays in this study pre-adipocytes were seeded at 40,000 cells/ml into a 96-well microtiter flat bottom plate. The test items were prepared in separate plates starting with the double concentrated maximal test concentration followed by a 1:2 serial dilution (Chloroquine and Fluoxetine 1:3) and then added to the cells. The test items were tested at 6 replicates/concentration. Each plate included negative controls (media plus solvent, 6 replicates), a drug interference control (all concentrations, duplicates), a background control (14 replicates), a positive (=cytotoxic) control (6 replicates doxorubicin, 1 μM final) and a positive control for maximal LDH-release (2 replicates, 2% Triton-x 100 final).
(§3) Relative cell viability was determined after 48 hrs exposure based on metabolic activity (i.e. resazurin conversion). Using a Victor^3 1420 Multilabel Counter, the resazurin conversion to the fluorescent resorufin by metabolically active cells was recorded at 560Ex/590Em. Membrane integrity was measured after 6 hrs and 48 hrs and the enzymatic activity of released LDH in the cell supernatant after 30 min of incubation at 492 nmabsorption/690 nmreference by a spectrophotometer. The volume withdrawn from the cultures for the LDH-assay was not replaced to keep cells in a less disturbed environment. The assay was conducted in a multiplexed format.
For the dose-response relationship, absolute absorption (OD treated wells−background) was plotted against the test item concentrations representing LDH leakage from the cells. For a better estimation of the test items' potential influencing the membrane integrity, relative, maximal LDH release in percent (see Table 2) was also calculated according to the following formula: […]
(§4) The effects on cytotoxicity in human adipocyte cells of a further 9 compounds were tested. The experimental set-up was identical to the one in example 1.

human adipocyte cells [2] = experiment: Cytotoxicity assay: metabolic activity (resazurin conversion) of human adipocytes
Protocol: as §1
The test items 1 to 8 were prepared according to Table 1 to yield respective stock solutions. Said stock solutions were further diluted in assay media to obtain the double concentrated working solutions, which were subsequently diluted 1:2 in the final assay. […] Deoxycholate Na was selected as “reference compound”.
as §2, §3
In order to derive meaningful IC50 values from the primary data, the entire biological window of activity ranging from 0% to 100% viability should be covered and the resolution has to be sufficient. To improve data quality, the serial dilution factor used in previous experiments was reduced to a 1:2 and 1:3 dilution. […] IC50 (half maximal inhibitory concentration, calculated via Sigma Plot 10) values were determined for each test substance 1 to 8.
as §4

Human white adipocytes = experiment: Apoptosis/necrosis detection, Annexin V-FITC/PI flow cytometry; conditions: for apoptosis/necrosis induction in human adipocytes (in words): 5, 24, 48 hrs, concentrations as in Table 4
Text: The apoptotic program is characterized by certain morphologic features. Loss of plasma membrane asymmetry is a well established indicator for apoptotic cells. In apoptotic cells, the membrane phospholipid phosphatidylserine (PS) is translocated from the inner to the outer leaflet of the plasma membrane, thereby exposing PS to the external environment. In general, this PS translocation is preceded by caspase activation. Annexin V labelled with FITC is a Ca^2+ dependent phospholipid-binding protein with high affinity for PS and binds to cells with externalized PS. Cells stained with Annexin V*FITC are therefore considered in an early apoptotic stage.
Staining with Annexin V-FITC is typically used in conjunction with a vital dye such as propidium iodide (PI) to allow discrimination between early apoptotic and necrotic cells. Necrotic dying cells are PI positive only. Cells that are viable are Annexin V and PI negative; cells that entered apoptosis are Annexin V positive and PI negative and cells that are in post apoptotic and/or necrotic phase are both Annexin V and PI positive.
Human white adipocytes that had been differentiated in vitro from pre-adipocytes as describe above were used. Measurements were performed after 5 hrs to catch early apoptotic/necrotic events and after 24 hrs and 48 hrs for later stages. Naringenin at 500 μM (reported to induce apoptosis in adipocytes) was used as positive control and media plus solvent was used as negative control. Each compound was tested in three different concentrations. […] Two more concentrations, one below and one above the IC50 were added.
Flow cytometry was performed with a dual laser FC500. After completion of the staining procedure, tubes were grouped into a FC500 carousel for semi-automated data acquisition. Cells were first acquired in “Setup” mode to tune the parameters FS, SS, FL1 and FL2. After completion of the setup, baseline compensation was switched on and cells were acquired. Cells were acquired without life-gate but using FS threshold to exclude debris. All cells were acquired using individually corrected settings.
After completion of data acquisition, analysis was done using the CXP software. If necessary, software-based post acquisition compensation was performed to fine-correct for fluorescence overlap not adjusted for during the acquisition phase. Quadrant markers were set based on the negative controls.

[3] = read-out: IC50 (metabolic activity after 48 hrs), Example 1, 48 hrs exposure, resazurin
[4] = Homo sapiens, Adipocyte, Example 2, 48 hrs
[5] = Homo sapiens, Adipocyte, read-out: IC50 48 hrs Resazurin, Example 2, 48 hrs
[6] = Homo sapiens, Adipocyte, read-out: IC50 (metabolic activity after 48 hrs), Example 1, 48 hrs exposure, resazurin

## COc1ccc([C@@H]2Sc3ccccc3N(CCN(C)C)C(=O)[C@@H]2OC(C)=O)cc1.Cl [Test substance 6, Diltiazem HCl]
Human adipocyte cells [1]
  Rel. max. LDH release [%] 48 hrs: 94.5%
Human adipocyte cells [2]; [3]
  pIC50: 3.10

## O=C1C[C@@H](c2ccc(O)cc2)Oc2cc(O)cc(O)c21 [Naringenin]
Human white adipocytes; 500 μM, 5 hrs
  Early Apoptosis [A-V*/PI*]: 16
  Necrosis/ Late Apoptosis [A-V*/PI*]: 0.8
  Normal [A-V*/PI]: 83.2
Human white adipocytes; 500 μM, 24 hrs
  Early Apoptosis [A-V*/PI*]: 14.1
  Necrosis/ Late Apoptosis [A-V*/PI*]: 4.1
  Normal [A-V*/PI]: 81.8
Human white adipocytes; 500 μM, 48 hrs
  Early Apoptosis [A-V*/PI*]: 12.1
  Necrosis/ Late Apoptosis [A-V*/PI*]: 5.7
  Normal [A-V*/PI]: 81.2
Human white adipocytes
  apoptosis/necrosis induction in human adipocytes (in words): small but clear increase in apoptotic/necrotic adipocytes over time

## CCN(CC)CCCC(C)Nc1ccnc2cc(Cl)ccc12 (centres unmarked) [Test substance 1, Chloroquine]
Human adipocyte cells [1]
  Rel. max. LDH release [%] 48 hrs: 101.8%
Human adipocyte cells [2]; Homo sapiens, Adipocyte, 48 h, read-out: IC50 (metabolic activity after 48 hrs)
  pIC50: 3.22

## CN1CCN(CCCN2c3ccccc3Sc3ccc(C(F)(F)F)cc32)CC1 [Trifluoperazine]
Human adipocyte cells [1]; [4]
  pIC50: ~4.84
Human adipocyte cells [2]; [5]
  pIC50: 4.76

## Fc1ccc([C@@H]2CCNC[C@H]2COc2ccc3c(c2)OCO3)cc1 [Paroxetine]
Human adipocyte cells [1]; [4]
  pIC50: ~4.51
Human adipocyte cells [2]; [5]
  pIC50: 4.41

## COc1ccccc1OCCNCC(O)COc1cccc2[nH]c3ccccc3c12 (centres unmarked) [Carvedilol]
Human adipocyte cells [1]; [4]
  pIC50: ~4.65
Human adipocyte cells [2]; [5]
  pIC50: 4.55

## CN(C)CCCC1(c2ccc(F)cc2)OCc2cc(C#N)ccc21 (centres unmarked) [Test substance 2, Citalopram HBr]
Human adipocyte cells [1]
  Rel. max. LDH release [%] 48 hrs: 100.7%
Human white adipocytes; 250 μM, 5 hrs
  Early Apoptosis [A-V*/PI*]: 21.5
  Necrosis/ Late Apoptosis [A-V*/PI*]: 0.6
  Normal [A-V*/PI]: 77.9
Human white adipocytes; 250 μM, 24 hrs
  Early Apoptosis [A-V*/PI*]: 32.4
  Necrosis/ Late Apoptosis [A-V*/PI*]: 2.2
  Normal [A-V*/PI]: 65.4
Human white adipocytes; 250 μM, 48 hrs
  Early Apoptosis [A-V*/PI*]: 23.1
  Necrosis/ Late Apoptosis [A-V*/PI*]: 3.3
  Normal [A-V*/PI]: 79.6
Human white adipocytes; 350 μM, 5 hrs
  Early Apoptosis [A-V*/PI*]: 31.3
  Necrosis/ Late Apoptosis [A-V*/PI*]: 1.5
  Normal [A-V*/PI]: 67.2
Human white adipocytes; 350 μM, 24 hrs
  Early Apoptosis [A-V*/PI*]: 57.6
  Necrosis/ Late Apoptosis [A-V*/PI*]: 4.7
  Normal [A-V*/PI]: 37.7
Human white adipocytes; 350 μM, 48 hrs
  Early Apoptosis [A-V*/PI*]: 35.6
  Necrosis/ Late Apoptosis [A-V*/PI*]: 10.7
  Normal [A-V*/PI]: 53.7
Human white adipocytes; 450 μM, 5 hrs
  Early Apoptosis [A-V*/PI*]: 30.5
  Necrosis/ Late Apoptosis [A-V*/PI*]: 1.1
  Normal [A-V*/PI]: 68.4
Human white adipocytes; 450 μM, 24 hrs
  Early Apoptosis [A-V*/PI*]: 26
  Necrosis/ Late Apoptosis [A-V*/PI*]: 23.9
  Normal [A-V*/PI]: 50.1
Human white adipocytes; 450 μM, 48 hrs
  Early Apoptosis [A-V*/PI*]: 44.9
  Necrosis/ Late Apoptosis [A-V*/PI*]: 26
  Normal [A-V*/PI]: 29.1
Human white adipocytes
  apoptosis/necrosis induction in human adipocytes (in words): clear apoptosis after 5 hrs with virtually no necrosis
Human adipocyte cells [2]; [6]
  pIC50: 3.37

## OCCN1CCN(CCCN2c3ccccc3Sc3ccc(Cl)cc32)CC1 [Perphenazine]
Human adipocyte cells [1]; [4]
  pIC50: ~4.69
Human adipocyte cells [2]; [5]
  pIC50: 4.60

## Clc1ccc(C(Cn2ccnc2)OCc2ccsc2Cl)c(Cl)c1 (centres unmarked) [Thioconazole]
Human adipocyte cells [1]; Example 2, 48 hrs
  pIC50: ~5.13
Human adipocyte cells [2]; read-out: IC50 48 hrs Resazurin, Example 2, 48 hrs
  pIC50: 4.98

## C[C@H](CCC(=O)[O-])[C@H]1CC[C@H]2[C@@H]3CC[C@@H]4C[C@H](O)CC[C@]4(C)[C@H]3C[C@H](O)[C@]12C.[Na+] [Test substance 8, Deoxycholate Na]
Human adipocyte cells [1]
  Rel. max. LDH release [%] 48 hrs: 98.0%
Human adipocyte cells [1]; Example 2, 48 hrs
  pIC50: ~3.42
Human adipocyte cells [2]; read-out: IC50 48 hrs Resazurin, Example 2, 48 hrs, listed as Deoxycholate
  pIC50: ~3.21
Human adipocyte cells [2]; read-out: IC50 48 hrs Resazurin, Example 2, 48 hrs, listed as deoxycholate
  pIC50: 3.21
Human adipocyte cells [2]; [3]
  pIC50: 3.35

## CN(C)CCC[C@@]1(c2ccc(F)cc2)OCc2cc(C#N)ccc21 [Test substance 3, Escitalopram oxalate]
Human adipocyte cells [1]
  Rel. max. LDH release [%] 48 hrs: 88.0%
Human adipocyte cells [2]; [6]
  pIC50: 3.31

## CNCC[C@H](Oc1cccc2ccccc12)c1cccs1 [Duloxetine]
Human adipocyte cells [1]; Homo sapiens, Adipocyte, 48 h
  pIC50: ~4.50
Human adipocyte cells [2]; Homo sapiens, Adipocyte, 48 h, read-out: IC50 48 hrs Resazurin
  pIC50: 4.37

## CC(CCc1ccccc1)NCC(O)c1ccc(O)c(C(N)=O)c1 (centres unmarked) [Test substance 7, Labetalol HCl]
Human adipocyte cells [1]
  Rel. max. LDH release [%] 48 hrs: 101.1%
Human adipocyte cells [2]; [6]
  pIC50: 3.18
